In the supplement of paper PMC10331698:
± gives the standard deviation of the averaged measurements.

Columns and labels:
Assay in all cases: level (log10 ratio to DMSO vehicle control); higher = higher biomarker level / cell amount than vehicle control
Conditions in all cases: in DMSO
[1] = compound: CC(C)(C)C(=O)CC(=O)C(F)(F)C(F)(F)C(F)(F)F [(Heptafluorobutanoyl)pivaloylmethane]
Experimental: (§1)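 BioMAP Diversity Plus panel of 12 human primary cell co-culture systems (3C, 4H, LPS, SAg, BT, BF4T, BE3C, CASM3C, HDF3CGF, KF3CT, MyoF, Mphg). Compounds were added 1 h before stimulation and left for 24 h (MyoF 48 h; BT 72 h for soluble read-outs or 6 d for IgG). Biomarkers were read by ELISA, cytotoxicity by SRB, PBMC viability and proliferation by Alamar Blue. Each well value was divided by the mean of 8 DMSO control wells on the same plate and log10 transformed; duplicate blinded samples were tested at 4 concentrations.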

[2] = compound: O=C(O)C(F)(F)C(F)(F)C(F)(F)C(F)(F)C(F)(F)C(F)(F)C(F)(F)C(F)(F)C(F)(F)C(F)(F)C(F)(F)C(F)(F)F [Perfluorotridecanoic acid]
Experimental: as §1

[3] = compound: O=C(O)C(F)(F)C(F)(F)C(F)(F)C(F)(F)C(F)(F)F [Perfluorohexanoic acid]
Experimental: as §1

[4] = compound: O=P(O)(O)CCC(F)(F)C(F)(F)C(F)(F)C(F)(F)C(F)(F)C(F)(F)C(F)(F)C(F)(F)F [((Perfluorooctyl)ethyl)phosphonic acid]
Experimental: as §1

[5] = compound: O=S(=O)(O)C(F)(F)C(F)(F)C(F)(F)C(F)(F)C(F)(F)C(F)(F)C(F)(F)C(F)(F)F [Perfluorooctanesulfonic acid]
Experimental: as §1

[6] = compound: O=S(=O)(O)C(F)(F)C(F)(F)C(F)(F)C(F)(F)C(F)(F)C(F)(F)C(F)(F)C(F)(F)F [Potassium perfluorooctanesulfonate]
Experimental: as §1

Test System	level (log10) ([1]; 6700 nM)	level (log10) ([1]; 20000 nM)	level (log10) ([1]; 60000 nM)	level (log10) ([2]; 1500 nM)	level (log10) ([2]; 4400 nM)	level (log10) ([2]; 13000 nM)	level (log10) ([2]; 40000 nM)	level (log10) ([3]; 6700 nM)	level (log10) ([3]; 20000 nM)	level (log10) ([3]; 60000 nM)	level (log10) ([4]; 6700 nM)	level (log10) ([4]; 20000 nM)	level (log10) ([4]; 60000 nM)	level (log10) ([5]; 6700 nM)	level (log10) ([5]; 20000 nM)	level (log10) ([5]; 60000 nM)	level (log10) ([6]; 6700 nM)	level (log10) ([6]; 20000 nM)	level (log10) ([6]; 60000 nM)
LPS:CD142/Tissue Factor	0.0055 ± 0.012	0.0385 ± 0.018	0.034 ± 0.0057	0.0325 ± 0.08	-0.026 ± 0.058	0.0025 ± 0.069	0.0325 ± 0.019	0.0205 ± 0.021	0.0045 ± 0.011	0.015 ± 0.0071	-0.023 ± 0.0014	-0.01 ± 0.0099	0.032 ± 0.033	-0.0135 ± 0.00071	-0.0265 ± 0.019	-0.0105 ± 0.0092	-0.0095 ± 0.019	-0.004 ± 0.0028	-0.002
BF4T:CD90	-0.0065 ± 0.012	-0.0015 ± 0.0035	0.004 ± 0.0028	-0.0015 ± 0.016	-0.002 ± 0.016	-0.001 ± 0.013	0.005 ± 0.0014	-0.0045 ± 0.011	-0.0005 ± 0.011	-0.007 ± 0.011	0.001 ± 0.0099	0.0035 ± 0.005	0.014 ± 0.021	-0.0015 ± 0.011	0.005 ± 0.0014	0.0135 ± 0.0021	0.0085 ± 0.0064	-0.0075 ± 0.00071	0.0075 ± 0.019
SAg:CD69	-0.027 ± 0.023	-0.023 ± 0.02	-0.007 ± 0.014	-0.0075 ± 0.037	-0.053 ± 0.03	-0.0305 ± 0.025	-0.0685 ± 0.0078	-0.0065 ± 0.00071	-0.0115 ± 0.021	-0.0125 ± 0.0092	-0.01 ± 0.017	-0.016 ± 0.05	-0.006 ± 0.052	-0.013 ± 0.0014	-0.0035 ± 0.018	0.0035 ± 0.016	-0.0075 ± 0.013	-0.002 ± 0.014	-0.002 ± 0.021
BF4T:CXCL8/IL-8	-0.0045 ± 0.035	-0.002 ± 0.0085	0.0175 ± 0.029	0.023 ± 0.031	0.005 ± 0.025	0.0175 ± 0.019	0.028 ± 0.016	-0.0055 ± 0.025	0.0155 ± 0.0078	0.0415 ± 0.042	0.0075 ± 0.012	0.026 ± 0.017	0.0325 ± 0.0092	-0.0155 ± 0.00071	-0.032 ± 0.014	-0.0185 ± 0.059	0.0005 ± 0.052	-0.0105 ± 0.047	0.0205 ± 0.0078
SAg:PBMC Cytotoxicity	-0.0265 ± 0.013	-0.007 ± 0.017	-0.124 ± 0.15	-0.0045 ± 0.021	0.0025 ± 0.0021	-0.061 ± 0.042	-0.0085 ± 0.028	-0.0155 ± 0.046	0.002 ± 0.0028	0.009 ± 0.073	-0.025 ± 0.017	-0.04 ± 0.0042	-0.037 ± 0.037	0.0135 ± 0.0092	0.021 ± 0.013	0.0185 ± 0.013	0.0165 ± 0.0092	0.012 ± 0.013	0.0315 ± 0.029
